Data published in patent US4783482A, “Bis(thiocyanato)palladium(II)complexes” (Engelhard Corporation, priority 1985, dated 1988).
Several values for one entry are separate records, joined by “and”; a condition that tells them apart may be missing. Equal entries are not always repeated.

Assays:
[1] = test system: S180 ascites; assay: Anti-tumor evaluation: % increase in life span (% ILS) and survivors, S180 ascites in female CFW Swiss mice; type: in vivo; conditions: for Best % ILS: best over doses
Description: The above-prepared compounds were evaluated against S180 ascites in female CFW Swiss mice. The mice were weighed (average weight: 20 g), placed into cages (four or six mice to a cage), and on day zero the mice were inoculated with 0.2 ml of a freshly prepared saline suspension (0.15 M NaCl) containing 1×10^7 tumor cells/ml or a total of 2×10^6 cells This inoculum was freshly prepared using "transfer" mice, which had been injected with tumor cells the previous week; it was obtained via the following steps: (1) the removal of cells from the peritoneal cavity of the sacrificed transfer mouse, (2) alternate centrifugation and washing operations (2-3 times with cold saline) to remove blood and other components, and (3) dilution of the volume of the packed cell with saline (1:3). A final centrifugation was carried out at 1000 RPM over a two minute period. A cell count was made on a 2,000-fold dilution of this 1:3 suspension by means of a Coulter Counter. A final dilution to 1×10^7 cells/ml was made, based on the average count.
On day 1, solutions of the test compounds were prepared, and each mouse in a set of four or six were injected with the same test compound at the same dosage. The doses were based on the average weight of the animals (cage weight). Also, beginning on day 1, two controls were employed containing six mice per control:
(1) Normal Control: This consisted solely of the carrier or diluent used in combination with the test compound; and
(2) Positive Control: This consisted solely of known anti-tumor agent cis-[Pt(NH3)2 Cl2 ] in saline (8 mg/kg) to test the response of the biological system.
The effectiveness of a test compound was measured in terms of the % increase in life span (%ILS) of the test mice relative to the Normal Control (Calculated from the day of tumor inoculation, i.e., day zero). To standardize the test data and permit intercomparisons, the day of evaluation was arbitrarily taken as that day corresponding to twice the mean life span (or average day of death) of the control. This established a practical upper limit of 100% on the %ILS attainable. For calculation purposes, the survivors of the day of evaluation were considered to have died on that day. The %ILS was calculated as follows: [formula] ILS values in excess of 50% were interpreted as antitumor activity, whereas values in excess of 75% indicated excellent antitumor activity.
All test compounds were evaluated in water containing 0.1-0.3% of the suspending agent "Klucel" (hydroxypropylcellulose).
Tables 3 and 4, infra, show the criticality of the ring size and the thiocyanato substituents, respectively. The protocols for determining effectiveness for the products in Tables 3 and 4 were identical to the procedure employed for determining the anti-tumor effectiveness of the products in Table 2.

[2] = test system: S180 Ascites; assay: ED90, LD50 and therapeutic index, S180 ascites; type: in vivo, mice; design: ED90: unit not given here; conditions: for ED90: dose which causes a 50% increase in life span in 90% of the mice, determined graphically
Description: The effective dose (ED90), lethal does (LD50) and therapeutic index (TI) were determined, via the method of Miller and Taiter (Reported by R. A. Turner, "Screening Methods in Pharmacology", Academic Press, New York, pages 61-62 (1976)).
In this study, ED90 represents the dose which causes a 50% increase in life span (ILS) in 90% of the test animals (mice), determined graphically. The LD50 value represents the lethal dose in 50% of said animals.

[3] = test system: testicular and ovarian tumors; conditions: background; cited from earlier work
[4] = dose 10 mg/kg, on day of evaluation
[5] = dose 20 mg/kg, on day of evaluation
[6] = dose 40 mg/kg, on day of evaluation
[7] = dose 80 mg/kg, on day of evaluation
[8] = dose 160 mg/kg, on day of evaluation

Row | SMILES | Best % ILS [1] [%] | % ILS ([1]; dose 10 mg/kg) [%] | Survivors [1, 4] | % ILS ([1]; dose 20 mg/kg) [%] | Survivors [1, 5] | % ILS ([1]; dose 40 mg/kg) [%] | Survivors [1, 6] | % ILS ([1]; dose 80 mg/kg) [%] | Survivors [1, 7] | % ILS ([1]; dose 160 mg/kg) [%] | Survivors [1, 8] | % ILS ([1]; dose 320 mg/kg) [%] | Survivors ([1]; dose 320 mg/kg, on day of evaluation) | ED90 [2] | % ILS ([1]; dose 5 mg/kg) [%] | Survivors ([1]; dose 5 mg/kg, on day of evaluation (twice mean life span of control)) | Therapeutic Index ([2]; mouse, in vivo) | Positive Control Survivors ([1]; 8 mg/kg in saline, run beside the test compound) | anti-tumor activity (in words) [3]
1 | N#C[S][Pd]1([S]C#N)[NH]c2ccccc2[NH]1 [Ex. 5, Bis(Thiocyanato)-o-Phenylenediaminepalladium(II)] | 81 | 14 | 0 of 4 | 15 | 0 of 4 | 27 | 0 of 4 | 81 | 2 of 4 | 79 | 1 of 4 | -73 | 0 of 4 | 130 | – | – | – | – | –
2 | Cc1cc2c(cc1C)[NH][Pd]([S]C#N)([S]C#N)[NH]2 [Ex. 6, Bis(Thiocyanato)-4,5-Dimethyl-o-Phenylenediaminepalladium(II)] | 65 | 24 | 0 of 6 | 10 | 0 of 6 | 2 | 0 of 6 | 13 | 0 of 6 | 65 | 2 of 6 | – | – | 200 | -1 | 0 of 6 | 1.8 | – | –
3 | N.N.[Cl][Pt][Cl] [Positive Control, cis-[Pt(NH3)2 Cl2]] | – | – | – | – | – | – | – | – | – | – | – | – | – | – | – | – | – | 2 of 6 and 3 of 6 and 1 of 4 and 1 of 6 and 0 of 6 | singularly successful in bringing about a regression of testicular and ovarian tumors
